From ChEMBL document CHEMBL1201862, “PubChem BioAssay data set” (2004)
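Briefly, cells in 96-well plates were exposed to five compound concentrations for 48 h, and endpoints were estimated by linear interpolation. At the GI50, growth is halved.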 The source made the active and inactive calls. Rule as the data show it: active = GI50 up to about 1.1 µM and inactive = higher.

How the values were obtained:
Assay in all cases: inhibition of tumour cell growth, NCI panel, 48 h
RPMI-8226 = test system: RPMI-8226
Malme-3M = test system: Malme-3M
HCT-15 = test system: HCT-15
SK-MEL-2 = test system: SK-MEL-2
TK-10 = test system: TK-10
DMS-273 = test system: DMS-273
NCI-H460 = test system: NCI-H460
KM12 = test system: KM12
A549 = test system: A549
NCI-H522 = test system: NCI-H522
HCT-116 = test system: HCT-116
IGROV-1 = test system: IGROV-1
RXF 631 = test system: RXF 631
SNB-75 = test system: SNB-75
U-251 = test system: U-251
RXF 393 = test system: RXF 393
DMS-114 = test system: DMS-114
HOP-92 = test system: HOP-92
SN12C = test system: SN12C
UACC-62 = test system: UACC-62
SK-MEL-28 = test system: SK-MEL-28
OVCAR-5 = test system: OVCAR-5
OVCAR-3 = test system: OVCAR-3
786-0 = test system: 786-0
SF-295 = test system: SF-295
UO-31 = test system: UO-31
M19-MEL = test system: M19-MEL
SK-MEL-5 = test system: SK-MEL-5
KM-20L2 = test system: KM-20L2
UACC-257 = test system: UACC-257
XF498 = test system: XF498
SNB-19 = test system: SNB-19
HL-60 = test system: HL-60
NCI-H23 = test system: NCI-H23
EKVX = test system: EKVX
M14 = test system: M14
HOP-62 = test system: HOP-62
SF-268 = test system: SF-268
LXFL 529 = test system: LXFL 529
CCRF-CEM = test system: CCRF-CEM
ACHN = test system: ACHN
K562 = test system: K562
OVCAR-8 = test system: OVCAR-8
SF-539 = test system: SF-539
SNB-78 = test system: SNB-78
MOLT-4 = test system: MOLT-4
COLO 205 = test system: COLO 205
SW-620 = test system: SW-620
HT-29 = test system: HT-29
HCC 2998 = test system: HCC 2998
OVCAR-4 = test system: OVCAR-4
DLD-1 = test system: DLD-1
SK-OV-3 = test system: SK-OV-3
CAKI-1 = test system: CAKI-1
LOX IMVI = test system: LOX IMVI
NCI-H226 = test system: NCI-H226
SR = test system: SR

## CC(C)(C)CC(C)(C)c1cc2c(O)c(c1)Cc1cc(C(C)(C)CC(C)(C)C)cc(c1O)Cc1cc(C(C)(C)CC(C)(C)C)cc(c1O)Cc1cc(C(C)(C)CC(C)(C)C)cc(c1O)C2
RPMI-8226
  GI50: > 100 µM (inactive)
Malme-3M
  GI50: > 100 µM (inactive)
HCT-15
  GI50: > 100 µM
SK-MEL-2
  GI50: > 100 µM (inactive)
TK-10
  GI50: > 100 µM (inactive)
DMS-273
  GI50: > 100 µM (inactive)
NCI-H460
  GI50: > 100 µM (inactive)
KM12
  GI50: > 100 µM (inactive)
A549
  GI50: > 100 µM (inactive)
NCI-H522
  GI50: > 100 µM (inactive)
HCT-116
  GI50: > 100 µM (inactive)
IGROV-1
  GI50: > 100 µM (inactive)
RXF 631
  GI50: > 100 µM (inactive)
SNB-75
  GI50: > 100 µM (inactive)
U-251
  GI50: > 100 µM (inactive)
RXF 393
  GI50: > 100 µM (inactive)
DMS-114
  GI50: > 100 µM (inactive)
HOP-92
  GI50: > 100 µM (inactive)
SN12C
  GI50: > 100 µM (inactive)
UACC-62
  GI50: > 100 µM (inactive)
SK-MEL-28
  GI50: > 100 µM (inactive)
OVCAR-5
  GI50: > 100 µM (inactive)
OVCAR-3
  GI50: > 100 µM (inactive)
786-0
  GI50: > 100 µM (inactive)
SF-295
  GI50: > 100 µM (inactive)
UO-31
  GI50: > 100 µM (inactive)
M19-MEL
  GI50: > 100 µM (inactive)
SK-MEL-5
  GI50: > 100 µM (inactive)
KM-20L2
  GI50: > 100 µM (inactive)
UACC-257
  GI50: > 100 µM (inactive)
XF498
  GI50: > 100 µM (inactive)
SNB-19
  GI50: > 100 µM (inactive)
HL-60
  GI50: > 100 µM (inactive)
NCI-H23
  GI50: > 100 µM (inactive)
EKVX
  GI50: > 100 µM (inactive)
M14
  GI50: > 100 µM (inactive)
HOP-62
  GI50: > 100 µM (inactive)
SF-268
  GI50: > 100 µM (inactive)
LXFL 529
  GI50: > 100 µM (inactive)
CCRF-CEM
  GI50: > 100 µM (inactive)
ACHN
  GI50: > 100 µM (inactive)
K562
  GI50: > 100 µM (inactive)
OVCAR-8
  GI50: > 100 µM (inactive)
SF-539
  GI50: > 100 µM (inactive)
SNB-78
  GI50: > 100 µM (inactive)
MOLT-4
  GI50: > 100 µM (inactive)
COLO 205
  GI50: > 100 µM (inactive)
SW-620
  GI50: > 100 µM (inactive)
HT-29
  GI50: > 100 µM (inactive)
HCC 2998
  GI50: > 100 µM (inactive)
OVCAR-4
  GI50: > 100 µM (inactive)
DLD-1
  GI50: > 100 µM (inactive)

## CCc1ccccc1NC(=O)C(=O)C(C#N)c1c(Cl)cccc1Cl (centres undefined)
RPMI-8226
  GI50: > 100 µM (inactive)
Malme-3M
  GI50: > 100 µM (inactive)
HCT-15
  GI50: > 100 µM
SK-MEL-2
  GI50: > 100 µM (inactive)
TK-10
  GI50: > 100 µM (inactive)
DMS-273
  GI50: > 100 µM (inactive)
KM12
  GI50: > 100 µM (inactive)
A549
  GI50: > 100 µM (inactive)
NCI-H522
  GI50: > 100 µM (inactive)
HCT-116
  GI50: > 100 µM (inactive)
IGROV-1
  GI50: > 100 µM (inactive)
RXF 631
  GI50: > 100 µM (inactive)
SNB-75
  GI50: > 100 µM (inactive)
U-251
  GI50: > 100 µM (inactive)
HOP-92
  GI50: > 100 µM (inactive)
SN12C
  GI50: > 100 µM (inactive)
UACC-62
  GI50: > 100 µM (inactive)
SK-MEL-28
  GI50: > 100 µM (inactive)
OVCAR-3
  GI50: > 100 µM (inactive)
786-0
  GI50: > 100 µM (inactive)
SF-295
  GI50: > 100 µM (inactive)
UO-31
  GI50: > 100 µM (inactive)
M19-MEL
  GI50: > 100 µM (inactive)
KM-20L2
  GI50: > 100 µM (inactive)
UACC-257
  GI50: > 100 µM (inactive)
XF498
  GI50: > 100 µM (inactive)
SNB-19
  GI50: > 100 µM (inactive)
SK-OV-3
  GI50: > 100 µM (inactive)
HL-60
  GI50: > 100 µM (inactive)
NCI-H23
  GI50: > 100 µM (inactive)
EKVX
  GI50: > 100 µM (inactive)
M14
  GI50: > 100 µM (inactive)
CAKI-1
  GI50: > 100 µM (inactive)
LOX IMVI
  GI50: > 100 µM (inactive)
NCI-H226
  GI50: > 100 µM (inactive)
SR
  GI50: > 100 µM (inactive)
SF-268
  GI50: > 100 µM (inactive)
LXFL 529
  GI50: > 100 µM (inactive)
CCRF-CEM
  GI50: > 100 µM (inactive)
ACHN
  GI50: > 100 µM (inactive)
K562
  GI50: > 100 µM (inactive)
SF-539
  GI50: > 100 µM (inactive)
SNB-78
  GI50: > 100 µM (inactive)
MOLT-4
  GI50: > 100 µM (inactive)
SW-620
  GI50: > 100 µM (inactive)
HT-29
  GI50: > 100 µM (inactive)
DLD-1
  GI50: > 100 µM (inactive)
